Reference: US11135192B2, “Inhibitors for treating diseases characterized by atrial enlargement or remodeling” (Novartis AG, priority 2012, dated 2021)

Key:
[1] = test system: patients with heart failure with preserved ejection fraction; experiment: Plasma NT-proBNP in the 37-week randomized, double-blind study of LCZ696 compared to valsartan; type: in vivo, human; conditions: for NT-proBNP (pg/ml) at 12 weeks: 12 weeks / NT-proBNP (pg/ml) at 36 weeks: 36 weeks / NT-proBNP (pg/ml) at 12 weeks: Baseline / NT-proBNP (pg/ml) at 36 weeks: Baseline: geometric mean; for NT-proBNP (pg/ml) at 12 weeks: 12 weeks: after 12 weeks of treatment, target LCZ696 200 mg or valsartan 160 mg twice daily; for NT-proBNP (pg/ml) at 36 weeks: 36 weeks: after 36 weeks of treatment; for NT-proBNP (pg/ml) at 12 weeks: Baseline: baseline of patients analysed at 12 weeks; for NT-proBNP (pg/ml) at 36 weeks: Baseline: baseline of patients analysed at 36 weeks
Description: Men and women aged 40 years or older with a left ventricular ejection fraction of 45% or above, and a documented history of heart failure with associated signs or symptoms (dyspnea on exertion, orthopnea, paroxysmal dyspnea, and peripheral edema) are eligible. Patients are required to have an NT-proBNP>400 pg/mL at screening, be on diuretic therapy, and have a systolic blood pressure less than 140 mm Hg, or 160 mm Hg or less if on three or more blood pressure medications at randomization. Additional inclusion criteria include an estimated glomerular filtration rate (eGFR) of at least 30 ml/min/1.73 m^2 at screening (calculated by the Modification of Diet in Renal Disease formula) and a potassium of no more than 5.2 mmol/L.
(§1) The primary study endpoint is the change from baseline in NT-proBNP assessed at 12 weeks, and is analyzed using the last observation after baseline carried forward. Secondary endpoints include changes in echocardiography measures (left ventricular volumes and ejection fraction, left atrial volume, measures of diastolic function), change in blood pressure, as well as change in New York Heart Association Class (NYHA) clinical composite assessment and quality of life (Kansas City Cardiomyopathy Questionnaire).

[2] = test system: patients with heart failure with preserved ejection fraction; experiment: Blood pressure change in the same HF-PEF study; type: in vivo, human; conditions: mean (SD)
Procedure: as §1
(§2) Echocardiography studies are performed at screening, randomization, at week 12, and week 36 or at end of study or early termination visits. Echocardiograms performed at screening are evaluated by local readers for qualifying information. All other echocardiograms are only performed in patients meeting NT-proBNP entry criterion and are evaluated centrally. For assessment of global ventricular size and function, left ventricular end-diastolic and end-systolic volumes are obtained utilizing the Simpson's rule method and left ventricular ejection fraction is derived in the usual fashion. Maximal left atrial dimension is measured in the parasternal long-axis view, and left atrial volume is assessed with the Simpson's rule method and indexed to body surface area. Measurements are made in triplicate in accordance with the recommendations of the American Society of Echocardiography. Blood pressure and heart rate are measured at all study visits with a calibrated standard sphygmomanometer and appropriate size cuff. The use of concomitant medication is recorded at each study visit.

[3] = test system: patients with heart failure with preserved ejection fraction; experiment: Echocardiography (left atrial and left ventricular measures) in the same HF-PEF study; type: in vivo, human
Procedure: as §1, §2

[4] = test system: patients with heart failure with preserved ejection fraction
Procedure: as §1
The clinical composite assessment is based on a composite of the NYHA functional classification, patient global assessment and major adverse clinical events. […] Patients are determined to be worse if at the endpoint visit they experienced a major adverse cardiac event during the double blind treatment or reported worsening of their NYHA class or patient global assessment. Patients are considered unchanged if they are neither improved nor worsened.

[5] = test system: patients with heart failure with preserved ejection fraction; experiment: Safety and tolerability (adverse events, target dose achieved) in the same HF-PEF study
[6] = at 36 weeks, no unit printed in b206 (mm Hg)

SMILES: CCCCC(=O)N(Cc1ccc(-c2ccccc2-c2nnn[n-]2)cc1)C(C(=O)[O-])C(C)C.CCCCC(=O)N(Cc1ccc(-c2ccccc2-c2nnn[n-]2)cc1)C(C(=O)[O-])C(C)C.CCOC(=O)C(C)CC(Cc1ccc(-c2ccccc2)cc1)NC(=O)CCC(=O)[O-].CCOC(=O)C(C)CC(Cc1ccc(-c2ccccc2)cc1)NC(=O)CCC(=O)[O-].O.O.O.O.O.[Na+].[Na+].[Na+].[Na+].[Na+].[Na+] [LCZ696, trisodium [3-((1S,3R)-1-biphenyl-4-ylmethyl-3-ethoxycarbonyl-1-butylcarbamoyl) propionate-(S)-3′-methyl-2′-(pentanoyl(2″-(tetrazol-5-ylate)biphenyl-4′-ylmethyl)amino)butyrate]hemipentahydrate]
- reduction in NT-proBNP in patients with diabetes compared with patients without diabetes ([1]; 12 weeks, prespecified subgroup, interaction p=0.02): differentially greater reduction
- reduction in NT-proBNP versus valsartan after adjustment for the change in blood pressure ([1]; 12 weeks, p=0.01): greater reduction
- NT-proBNP versus baseline ([1]; 36 weeks): remained reduced from baseline
- early reduction in NT-proBNP compared with the valsartan group ([1]; after 4 weeks of treatment, p=0.083): not significant
- NT-proBNP (pg/ml) at 12 weeks: 12 weeks [1]: 605 pg/mL
- NT-proBNP (pg/ml) at 36 weeks: 36 weeks [1]: 496 pg/mL
- NT-proBNP (pg/ml) at 12 weeks: Baseline [1]: 783 pg/mL
- NT-proBNP (pg/ml) at 36 weeks: Baseline [1]: 763 pg/mL
- diastolic blood pressure reduction ([2]; after 12 weeks of treatment): 4.9 (10) mm Hg
- systolic blood pressure reduction ([2]; after 12 weeks of treatment): 9.3 (SD 14) mm Hg
- diastolic blood pressure reduction [2, 6]: 5.1 (10.8)
- systolic blood pressure reduction [2, 6]: 7.5 (15)
- Left atrial volume (result in words) ([3]; after 36 weeks of treatment, p=0.003): reduced significantly
- left atrial dimension (result in words) ([3]; after 36 weeks of treatment, p=0.034): reduced significantly
- LA Volume, Δ from Baseline ([3]; at 36 weeks): -4.61 mL
- LA dimension, Δ from Baseline ([3]; at 36 weeks): −0.15 cm
- Relative wall thickness, Δ from Baseline ([3]; at 36 weeks): +0.01%
- LA Volume, Baseline ([3]; baseline): 65.26 mL
- LA dimension, Baseline ([3]; baseline): 3.68 cm
- NYHA class improvement between groups ([4]; at 12 weeks, p=0.11): did not differ significantly
- NYHA class compared with the valsartan group ([4]; at 36 weeks, p=0.05): improvement

SMILES: CCCCC(=O)N(Cc1ccc(-c2ccccc2-c2nnn[nH]2)cc1)[C@H](C(=O)O)C(C)C [Valsartan, (S)—N-valeryl-N-{[2′-(1H-tetrazole-5-yl)-biphenyl-4-yl]-methyl}-valine, reference compound]
- NT-proBNP (pg/ml) at 12 weeks: 12 weeks [1]: 835 pg/mL
- NT-proBNP (pg/ml) at 36 weeks: 36 weeks [1]: 607 pg/mL
- NT-proBNP (pg/ml) at 12 weeks: Baseline [1]: 862 pg/mL
- NT-proBNP (pg/ml) at 36 weeks: Baseline [1]: 822 pg/mL
- diastolic blood pressure reduction ([2]; after 12 weeks of treatment): 2.1 (11) mm Hg
- systolic blood pressure reduction ([2]; after 12 weeks of treatment): 2.9 (17) mm Hg
- diastolic blood pressure reduction [2, 6]: 0.34 (11.5)
- systolic blood pressure reduction [2, 6]: 1.5 (18)
- LA Volume Index, Δ from Baseline ([3]; at 36 weeks): 0.31 ml/m^2
- LA Volume, Δ from Baseline ([3]; at 36 weeks): 0.37 mL
- LA dimension, Δ from Baseline ([3]; at 36 weeks): −0.08 cm
- LV mass index, Δ from Baseline ([3]; at 36 weeks): −1.93 g/m^2
- Relative wall thickness, Δ from Baseline ([3]; at 36 weeks): +0.01%
- LA Volume Index, Baseline ([3]; baseline): 36.80 ml/m^2
- LA Volume, Baseline ([3]; baseline): 68.28 mL
- LA dimension, Baseline ([3]; baseline): 3.73 cm
- LV mass index, Baseline ([3]; baseline): 79.45 g/m^2
- deaths ([5]; among the serious adverse events): two
- adverse event atrial fibrillation, number of patients ([5]; during the trial): 8 patients
- adverse event atrial fibrillation, percent of patients ([5]; during the trial): 5.3%
- one or more serious adverse events, number of patients ([5]; during the trial): 30 patients
- one or more serious adverse events, percent of patients ([5]; during the trial): 20%
- Angio-oedema, patients ([5]; the LCZ696 patient did not need admission to hospital): no patients
